For test [1], the system named is cAMP response element-binding protein (CREB). Description: pCREB phosphorylation in rat primary neurons (Example 12). The format is cell-based. The note with it: Primary neuron, 10 μM DETA-NONOate. The text has this: Objective. To assess the ability of Compound I-1 to activate cAMP response element-binding protein (CREB) in rat primary neurons. CREB is a cellular transcription factor. It binds to DNA sequences called cAMP response elements (CRE), and regulates transcription of the downstream genes (See Bourtchuladze R, et al., Cell 1994; 79 (1): 59-68). […] CREB proteins are activated by phosphorylation of Serine 133 by various kinases, including cAMP-dependent protein kinase or Protein Kinase A (PKA), cGMP-dependent protein kinase or Protein Kinase G (PKG), and Ca2+/calmodulin-dependent protein kinases. (See Shaywitz A J and Greenberg M E, Annual Review of Biochemistry 1999; 68 (1): 821-861 and Wong J C, et al., J Cell Biochem 2012: 113(11):3587-98). Stimulation of CREB could have therapeutic benefits for diseases in which cognition, neuronal plasticity, and or neuronal function is impaired.
Compounds. Compound I-1 was dissolved in DMSO as a 10 mM solution and stored at −20° C. […]
Assay Conditions. […] Medium was removed and cell were lysed and assay was performed according to Cisbio protocol (phospho-CREB (Ser133) catalog #64CREPEG) and the plate was read using Envision instrument (PerkinElmer).
Data Analysis. Data were analyzed with a 4-parameter fit (log(agonist) vs. response—variable slope) using GraphPad Prism Software v.7. […]

The subject of test [2] is rats. Description: Post-operative pain: Brennan model, electronic Von Frey test (Example 13). The format is in vivo, rat. The note with it: Compound I-1 p.o. 10 mg/kg, 120 minutes after treatment. The text has this:
Surgery: Surgery was done under gas anesthesia (2.5% isoflurane/3 L/min). For all rats, the plantar aspect of the left hind paw was exposed and a 1 cm longitudinal incision was made using a surgical blade, through the skin and fascia of the plantar aspect of the foot, starting 0.5 cm from the proximal edge of the heel and extending toward the toes. The plantaris muscle was elevated and incised longitudinally whereas the insertions remained intact. After hemostasis with gentle pressure, the skin was stitched up with two sutures. After surgery, animals recovered in their cages.
Electronic Von Frey Test: Tactile allodynia was assessed using the electronic Von Frey test 24 h after surgery. […] The apparatus exerted a steady force on the hind paws. […] Each reaction threshold measurement was repeated three times for both hind paws with intervals of approximately 2 to 3 mins.

In test [3] the test system is Sprague-Dawley rats, streptozotocin model. Kind of test: Rat model of diabetic neuropathy (STZ model), paw pressure test (Example 14). The format is in vivo. The note with it: Compound I-1 10 mg/kg p.o., mean±s.e.m.
Test [4] deals with rats. Description: Acute and tonic pain: healthy rats, tail flick test (Example 13). To be noted: Compound I-1 p.o. 10 mg/kg, 120 minutes after treatment. For orientation: Thermal pain tests record how soon the animal reacts.
Experimental: Tail Flick Test. A radiant heat was applied on the tail. When the rat felt discomfort, it reacted by a sudden tail movement (tail flick) which automatically stopped the stimulation and the timer for the measurement by the animal reaction time or nociceptive reaction latency (period from the beginning of the stimulation until detection of the response of the animal). A cut-off was previously fixed at 10 sec in order to prevent tissue damage.
Testing: 120 minutes after treatment. N=4/model/test. Results are expressed for each group as a percentage of activity calculated from the mean value of the vehicle-treated animals and compared to naïve animals, control paw, or cut-off value, depending on the test.

pEC50: −log10 of the molar value. Like-named read-outs stand apart in the source and are kept apart here.

A word on the pEC50: it is −log10 of the EC50, conventionally taken in molar units. As to `Fc1ccccc1Cc1nc(-c2nc(C(F)(F)F)n[nH]2)cn2ccnc12` [Compound I-1, 8-(2-fluorobenzyl)-6-(3-(trifluoromethyl)-1H-1,2,4-triazol-5-yl)imidazo[1,2-a]pyrazine], the pEC50 in test [1] (read-out: 95% confidence interval of EC50, phosphorylation of CREB at Ser133) was 7.75 to 9.30; in test [1] (0.5 h, 30 min, read-out: EC50, phosphorylation of CREB at Ser133) it was 8.52. Besides, the “% of activity vs. vehicle” value came to 31% in the test with rats [2] and 25% in the test with rats [4]. Moreover, the “nociceptive threshold (paw pressure test)” value in test [3] (D18, 60 min post administration, gabapentin 100 mg/kg p.o., morphine 4 mg/kg s.c.) is 328 ± 32.6 g; in test [3] (D18, 120 min post administration, gabapentin 100 mg/kg p.o., morphine 4 mg/kg s.c.), 387 ± 30.2 g; in test [3] (D18, 180 min post administration), 319 ± 23.1 g; in test [3] (D21, 120 min after dosing, gabapentin 100 mg/kg p.o., morphine 4 mg/kg s.c.) it was 346 ± 20.5 g; in test [3] (D21, baseline prior to administration (Cmin, daily dosing from D18)) it was 259 ± 25.6 g.

The record behind these values is patent publication US11731977B2, “SGC stimulators” (Cyclerion Therapeutics, Inc., priority 2016, dated 2023).
